Results from ChEMBL document CHEMBL5370665, “Insight from Linker Investigations: Discovery of a Novel Phenylbenzothiazole Necroptosis Inhibitor Targeting Receptor-Interacting Protein Kinase 1 (RIPK1) from a Phenoxybenzothiazole Compound with Dual RIPK1/3 Targeting Activity” (J Med Chem, 2023).
The source made the active and inactive calls. The calls are words filed in the database; no cut-off is given here.

Key:
[1] = Acute toxicity in mouse assessed as pathological damage in heart at 100 to 200 mg/kg,IG and measured after 14 days by H and E staining based microscopy; format: organism-based; settings: in vivo, po, 336 h, dose 100-200 mg/kg, time 14 day
Mus musculus [2] = assay: Anti-inflammatory activity against C57BL/6J mouse model of TNFalpha-induced systemic inflammatory response syndrome (SIRS) assessed as increase in survival rate at 5 mg/kg,po 2 hrs prior to mTNFalpha and z-VAD-FMK stimulation and measured upto 24 hrs; format: functional; settings: time 26 hrs
[3] = Acute toxicity in mouse assessed as behavioral changes at 100 to 200 mg/kg,IG and measured upto 14 days; format: organism-based; settings: in vivo, po, 336 h, dose 100-200 mg/kg, time < 14 day
[4] = Acute toxicity in mouse assessed as increase in body weight at 100 to 200 mg/kg,IG and measured upto 14 days; format: organism-based; settings: in vivo, po, 336 h, dose 100-200 mg/kg, time < 14 day
Mus musculus [5] = assay: Anti-inflammatory activity against C57BL/6J mouse model of TNFalpha-induced systemic inflammatory response syndrome (SIRS) assessed as decrease in […] IL-1beta level in heart at 1.25 to 5 mg/kg,po 2 hrs prior to mTNFalpha and z-VAD-FMK stimulation for 8 hrs by ELISA; format: functional, organism-based; settings: dose 1.25-5 mg/kg, time 10.0 hrs
Mus musculus [6] = assay: Anti-inflammatory activity against C57BL/6J mouse model of TNFalpha-induced systemic inflammatory response syndrome (SIRS) assessed as decrease in IL-6 level in liver at 1.25 to 5 mg/kg,po 2 hrs prior to mTNFalpha and z-VAD-FMK stimulation for 8 hrs by ELISA; format: functional, organism-based; settings: dose 1.25-5 mg/kg, time 10.0 hrs
[7] = biological target: T1, Receptor-interacting serine/threonine-protein kinase 1 (Homo sapiens) (UniProt Q13546); assay: Inhibition of RIPK1 phosphorylation in TSZ induced human HT-29 cells at 1 to 1000 nM pretreated with compound followed by TSZ stimulation for 6 hrs by Western blot analysis; format: cell-based; settings: dose 1-1000 nM
T1 sequence (whole entry): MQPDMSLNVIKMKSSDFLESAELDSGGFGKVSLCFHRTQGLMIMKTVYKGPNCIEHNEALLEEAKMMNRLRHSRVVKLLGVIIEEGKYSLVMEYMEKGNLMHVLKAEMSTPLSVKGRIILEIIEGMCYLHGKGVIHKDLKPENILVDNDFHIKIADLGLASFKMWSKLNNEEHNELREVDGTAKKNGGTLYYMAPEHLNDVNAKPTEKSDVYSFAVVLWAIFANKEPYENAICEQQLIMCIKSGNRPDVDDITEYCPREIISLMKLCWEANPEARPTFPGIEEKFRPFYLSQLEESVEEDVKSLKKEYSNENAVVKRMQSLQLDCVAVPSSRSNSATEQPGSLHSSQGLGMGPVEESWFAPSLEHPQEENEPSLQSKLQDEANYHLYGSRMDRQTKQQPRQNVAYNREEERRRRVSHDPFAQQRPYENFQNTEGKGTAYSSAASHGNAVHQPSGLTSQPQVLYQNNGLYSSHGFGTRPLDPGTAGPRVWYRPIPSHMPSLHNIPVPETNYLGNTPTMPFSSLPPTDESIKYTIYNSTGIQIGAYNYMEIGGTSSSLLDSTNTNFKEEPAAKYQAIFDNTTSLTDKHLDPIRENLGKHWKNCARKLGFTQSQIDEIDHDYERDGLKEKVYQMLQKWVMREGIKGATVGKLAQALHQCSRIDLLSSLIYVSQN

Mus musculus [8] = assay: Anti-inflammatory activity against C57BL/6J mouse model of TNFalpha-induced systemic inflammatory response syndrome (SIRS) assessed as increase in body temperature at 2.5 mg/kg,po 2 hrs prior to mTNFalpha and z-VAD-FMK stimulation and measured upto 18 hrs by electric thermometer analysis; format: functional, organism-based; settings: time 20.0 hrs
Mus musculus [9] = assay: Anti-inflammatory activity against C57BL/6J mouse model of TNFalpha-induced systemic inflammatory response syndrome (SIRS) assessed as decrease in IL-1beta level in heart at 1.25 to 5 mg/kg,po 2 hrs prior to mTNFalpha and z-VAD-FMK stimulation for 8 hrs by ELISA; format: functional, organism-based; settings: dose 1.25-5 mg/kg, time 10.0 hrs
[10] = Acute toxicity in mouse assessed as body weight loss at 100 to 200 mg/kg,IG and measured upto 14 days; format: organism-based; settings: in vivo, po, 336 h, dose 100-200 mg/kg, time < 14 day
[11] = biological target: Receptor-interacting serine/threonine-protein kinase 3 (Homo sapiens, UniProt Q9Y572); assay: Inhibition of RIPK3 phosphorylation in TSZ induced human HT-29 cells at 1 uM pretreated with compound followed by TSZ stimulation for 6 hrs by Western blot analysis; format: cell-based
HT-29 = assay: Anti-necroptic activity against human HT-29 cells assessed as inhibition of TSZ (TNFalpha, Smac mimetic and z-VAD-FMK) induced necroptosis pretreated with compound followed by TSZ stimulation for 16 to 18 hrs by CellTiter-Glo Luminescent cell viability assay; format: functional, cell-based
Mus musculus [12] = assay: Anti-inflammatory activity against C57BL/6J mouse model of TNFalpha-induced systemic inflammatory response syndrome (SIRS) assessed as decrease in serum IL-1beta level at 1.25 to 5 mg/kg,po 2 hrs prior to mTNFalpha and z-VAD-FMK stimulation for 8 hrs by ELISA; format: functional, organism-based; settings: dose 1.25-5 mg/kg, time 10.0 hrs
Mus musculus [13] = assay: Anti-inflammatory activity against C57BL/6J mouse model of TNFalpha-induced systemic inflammatory response syndrome (SIRS) assessed as decrease in IL-1beta level in intestine at 1.25 to 5 mg/kg,po 2 hrs prior to mTNFalpha and z-VAD-FMK stimulation for 8 hrs by ELISA; format: functional, organism-based; settings: dose 1.25-5 mg/kg, time 10.0 hrs
Mus musculus [14] = assay: Anti-inflammatory activity against C57BL/6J mouse model of TNFalpha-induced systemic inflammatory response syndrome (SIRS) assessed as decrease in IL-6 level in kidney at 1.25 to 5 mg/kg,po 2 hrs prior to mTNFalpha and z-VAD-FMK stimulation for 8 hrs by ELISA; format: functional, organism-based; settings: dose 1.25-5 mg/kg, time 10.0 hrs

Sequence of Receptor-interacting serine/threonine-protein kinase 3 (Q9Y572 whole entry, looked up): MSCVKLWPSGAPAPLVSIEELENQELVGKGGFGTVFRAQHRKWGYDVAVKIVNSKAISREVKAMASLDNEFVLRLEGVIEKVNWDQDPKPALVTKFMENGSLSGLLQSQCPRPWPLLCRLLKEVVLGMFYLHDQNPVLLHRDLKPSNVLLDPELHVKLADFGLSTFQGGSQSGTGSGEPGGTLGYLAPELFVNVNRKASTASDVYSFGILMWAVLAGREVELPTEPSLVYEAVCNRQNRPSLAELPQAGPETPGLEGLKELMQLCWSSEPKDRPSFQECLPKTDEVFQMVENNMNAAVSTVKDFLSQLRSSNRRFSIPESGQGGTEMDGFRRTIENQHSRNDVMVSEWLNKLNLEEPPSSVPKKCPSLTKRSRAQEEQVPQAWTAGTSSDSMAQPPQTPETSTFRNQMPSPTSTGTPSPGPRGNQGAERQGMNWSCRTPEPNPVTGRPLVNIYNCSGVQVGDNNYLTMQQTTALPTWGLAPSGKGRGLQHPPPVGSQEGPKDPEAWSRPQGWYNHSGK

O=C(Cc1cccc(OC(F)(F)F)c1)Nc1cc(-c2ccc3nc(NC(=O)C4CC4)sc3c2)ccc1F
Activity [1]: Non-Toxic | survival at 5 mg/kg (Mus musculus [2]): 100% | Activity [3]: Non-Toxic | Activity [4]: Non-Toxic | Activity (Mus musculus [5]): Active | Activity (Mus musculus [6]): Dose-Dependent Effect | inhibition [7]: Dose-Dependent Effect | Activity (Mus musculus [8]): Active | Activity (Mus musculus [9]): inactive | Activity [10]: Non-Toxic | inhibition [11]: Active | EC50 (HT-29): 0.017 µM | Activity (Mus musculus [12]): Active | Activity (Mus musculus [13]): Active | Activity (Mus musculus [14]): Dose-Dependent Effect
